Laboratory results from patent US20240051968A1, “METHODS FOR TREATING SPINOCEREBELLAR ATAXIA TYPE 3” (PTC Therapeutics, Inc., priority 2021, published 2024).

Assays:
ATXN3 pre-mRNA = assay: RT-qPCR Assay to Quantify Exon 4 Skipping in ATXN3 pre-mRNA in Cells; assay type: cell-based; conditions: cells incubated with compound 24 h, 7-point concentration curve, GAPDH control
Description: (§1) RT-qPCR Assay to Quantify Exon 4 Skipping in ATXN3 pre-mRNA in Cells Test compounds were serially diluted 3.16-fold in 100% DMSO to generate a 7-point concentration curve. Aliquots of 0.5 μL of diluted compounds were transferred to a 96-well flat bottom plate by a liquid handler. An aliquot of 0.5 μL DMSO was also transferred to separate wells and used as controls. Duplicate samples were set up for each compound concentration and for the DMSO control.
Cells were thawed and incubated in cell culture media (DMEM, 10% FBS, and 1% antibiotic cocktail) for 72 h. Cells were trypsinized, counted, and re-suspended to a concentration of 100,000 cells/mL in cell culture media. A 100 μL aliquot of the cell suspensions were plated at 10,000 cells per well in the compound containing 96 well microtiter plate and incubated for in a cell culture incubator (37° C., 5% CO2, 100% relative humidity).
After 24 h, media was aspirated from the cells and 50 μL of the RCL2 lysis buffer (10 mM Tris-HCL pH 7.4, 150 mM NaCl, 0.33% IGEPAL® CA-630) was added to each well and incubated at room temperature for 1 min. Chilled nuclease free water (50 μL per well) was added and the plates were immediately transferred on ice. After 1 min on ice, plates were frozen at −80° C. overnight.
Preparation of RT-qPCR Reaction Mixture:
An aliquot of 2 μL/well of the cell lysates was transferred using the liquid handler to the Armadillo 384-Well PCR plate containing 8 μL/well of the RT-qPCR reaction mixture that was prepared as detailed above. The plates were then sealed with MicroAmp™ Optical Adhesive Film followed by spinning down for 1 min and placed in the CFX384 thermocycler (BioRad).
The RT-qPCR was carried out at the following temperatures for the indicated time: • Step 1: 48° C. (30 min) • Step 2: 95° C. (10 min) • Step 3: 95° C. (15 sec) • Step 4: 60° C. (1 min); then, repeated Steps 3 and 4 for a total of 40 cycles.
The percent exon 4 skipping was calculated for each dose of compound treatment using Equations 1 and 2.
Data were fit to a dose response curve and the IC50 was interpolated using XLfit® statistical and curve fitting package.
An IC50 value between >2.0 μM and ≤3.0 μM is indicated by one star (*). […] IC50 value between >0.5 μM and ≤1.0 μM is indicated by four stars (****). An IC50 value ≤0.5 μM is indicated by five stars (*****).

[1] = test system: Total ATXN3 (tATXN3) protein; assay: Endogenous Total ATXN3 (tATXN3) Protein Assay (MSD immunoassay of cell lysates); assay type: cell-based; conditions: cells incubated with compound 48 h; 7-point concentration curve; MSD detection in cell lysate
Description: Endogenous Total ATXN3 (tATXN3) Protein Assay
Meso Scale Discovery (MSD) 96-well or 384-well plates were coated overnight at 4° C. with Ataxin 3 mouse monoclonal antibody (Invitrogen, MA3-082) at a concentration of 0.5 μg/mL in PBS (30 μL per well). Plates were then washed three times with 300 μL wash buffer (0.05% TWEEN®-20, polyethylene glycol sorbitan monolaurate, in PBS) and blocked (Meso Scale Diagnostics, R93BA-1; 5% BSA in PBS) for 2 h at room temperature with rotational shaking and then washed three times with wash buffer.
as §1, with “Test” for “RT-qPCR Assay to Quantify Exon 4 Skipping in ATXN3 pre-mRNA in Cells Test”
Cells were thawed and incubated in cell culture media (DMEM, 10% FBS, and 1% antibiotic cocktail) for 72 h. Cells were trypsinized, counted, and re-suspended to a concentration of 100,000 cells/mL in cell culture media. A 100 μL aliquot of the cell suspensions were plated at 10,000 cells per well in the compound containing 96 well microtiter plate and incubated for in a cell culture incubator (37° C., 5% CO2, 100% relative humidity). After 48 h, the medium was removed and 50-100 μL of lysis buffer (Meso Scale Diagnostics, R60TX-2) containing 1× halt protease inhibitor cocktail of (Thermo Scientific, Halt™ Protease Inhibitor Cocktail, 78430) per well was added to cells to provide a “cell lysate”. The plate was placed on a shaker at 4° C. for 30 minutes, then stored at −80° C.
Cell lysate samples (25 μL) were transferred to the antibody-coated MSD plate and incubated overnight at 4° C. After removal of the lysates, the plate was washed three times with wash buffer, and 25 μL of Ataxin 3 recombinant rabbit monoclonal antibody (Invitrogen, #702788) secondary antibody (diluted to 0.25 μg/mL in 0.05% TWEEN®-20 in blocking buffer) was added to each well and incubated with shaking for 1-2 h at room temperature. Following incubation with the secondary antibody, the wells were rinsed with wash buffer and then […] Anti Rabbit Antibody Goat SULFO-TAG Labeled (Meso Scale Diagnostics, R32AB-1) detecting antibody (diluted to 0.25 μg/mL in 0.05% TWEEN®-20 in blocking buffer) was added to each well and incubated with shaking for 1 h at room temperature. After rinsing three times with wash buffer, 150 μL of Read Buffer T with surfactant (tris-based buffer containing tripropylamine, Meso Scale Diagnostics, R92TC-1) were added to each empty well, and the plate was imaged on a SI 6000 imager (MSD) according to manufacturers' instructions provided for 96- or 384-well plates.

Structure (SMILES) | IC50 (ATXN3 pre-mRNA) [nM] | IC50 [1] [nM] | IC50, exon 4 skipping in ATXN3 pre-mRNA (ATXN3 pre-mRNA) | IC50 (average), total ATXN3 protein [1]
Cc1c(C[C@@H](N)C(=O)N(C)C)sc2c(NCc3ccco3)cc(Cl)nc12 [Cpd 116, 3-(5-chloro-7-{[(furan-2-yl)methyl]amino}-3-methylthieno[3,2-b]pyridin-2-yl)-N,N-dimethyl-D-alaninamide] | ≤ 500 | ≤ 500 |  | 
CS(=O)(=O)C[C@H](N)Cc1sc2c(NCc3ccco3)cc(Cl)nc2c1Br [Cpd 117, 2-[(2R)-2-amino-3-(methanesulfonyl)propyl]-3-bromo-5-chloro-N-[(furan-2-yl)methyl]thieno[3,2-b]pyridin-7-amine] | ≤ 500 | ≤ 500 |  | 
CSC[C@H](N)Cc1sc2c(NCc3ccco3)cc(Cl)nc2c1Br [Cpd 118, 2-[(2R)-2-amino-3-(methylsulfanyl)propyl]-3-bromo-5-chloro-N-[(furan-2-yl)methyl]thieno[3,2-b]pyridin-7-amine] | ≤ 500 | ≤ 500 |  | 
N[C@H](Cc1sc2c(NCc3ccco3)cc(Cl)nc2c1Cl)C(=O)Nc1ccccc1F [Cpd 120, 3-(3,5-dichloro-7-{[(furan-2-yl)methyl]amino}thieno[3,2-b]pyridin-2-yl)-N-(2-fluorophenyl)-D-alaninamide] | ≤ 500 | 500 to 1000 |  | 
N[C@H](Cc1sc2c(NCc3ccco3)cc(Cl)nc2c1Cl)C(=O)O [Cpd 121, 3-(3,5-dichloro-7-{[(furan-2-yl)methyl]amino}thieno[3,2-b]pyridin-2-yl)-D-alanine] | ≤ 500 | 500 to 1000 |  | 
N[C@H](Cc1sc2c(NCc3ccco3)cc(Cl)nc2c1Cl)C(=O)Nc1ccccc1 [Cpd 122, 3-(3,5-dichloro-7-{[(furan-2-yl)methyl]amino}thieno[3,2-b]pyridin-2-yl)-N-phenyl-D-alaninamide] | ≤ 500 | ≤ 500 |  | 
C#C[C@H](N)Cc1sc2c(NCc3ccco3)cc(Cl)nc2c1C [Cpd 123, 2-[(2R)-2-aminobut-3-yn-1-yl]-3-methyl-5-chloro-N-[(furan-2-yl)methyl]thieno[3,2-b]pyridin-7-amine] | ≤ 500 | ≤ 500 |  | 
C[C@H](F)[C@H](N)Cc1sc2c(NCc3nccs3)cc(Cl)nc2c1Br [Cpd 125, 2-[(2R,3S)-2-amino-3-fluorobutyl]-3-bromo-5-chloro-N-[(1,3-thiazol-2-yl)methyl]thieno[3,2-b]pyridin-7-amine] | ≤ 500 | ≤ 500 |  | 
Cc1c(C[C@@H](N)[C@H](C)F)sc2c(NCc3cccs3)cc(Cl)nc12 [Cpd 126, 2-[(2R,3S)-2-amino-3-fluorobutyl]-5-chloro-3-methyl-N-[(thiophen-2-yl)methyl]thieno[3,2-b]pyridin-7-amine] | ≤ 500 | ≤ 500 |  | 
C[C@H](N)C(O)c1sc2c(NCc3cccs3)cc(Cl)nc2c1Cl (stereo partly drawn) [Cpd 127, (2S)-2-amino-1-(3,5-dichloro-7-{[(thiophen-2-yl)methyl]amino}thieno[3,2-b]pyridin-2-yl)propan-1-ol] | ≤ 500 | ≤ 500 |  | 
Cc1c(C[C@@H](N)[C@H](C)F)sc2c(NCc3nccs3)cc(Cl)nc12 [Cpd 128, 2-[(2R,3S)-2-amino-3-fluorobutyl]-5-chloro-3-methyl-N-[(1,3-thiazol-2-yl)methyl]thieno[3,2-b]pyridin-7-amine] | ≤ 500 | ≤ 500 |  | 
C[C@H](N)C(F)c1sc2c(NCc3cccs3)cc(Cl)nc2c1Cl (stereo partly drawn) [Cpd 130, 2-[(2S)-2-amino-1-fluoropropyl]-3,5-dichloro-N-[(thiophen-2-yl)methyl]thieno[3,2-b]pyridin-7-amine] | ≤ 500 | ≤ 500 |  | 
C[C@H](N)C(F)(F)c1sc2c(NCc3cccs3)cc(Cl)nc2c1Cl [Cpd 132, 2-[(2S)-2-amino-1,1-difluoropropyl]-3,5-dichloro-N-[(thiophen-2-yl)methyl]thieno[3,2-b]pyridin-7-amine] | ≤ 500 | 500 to 1000 |  | 
Cc1c(C[C@@H](N)C(=O)Nc2cnccn2)sc2c(NCc3ccco3)cc(Cl)nc12 [Cpd 135, 3-(5-chloro-7-{[(furan-2-yl)methyl]amino}-3-methylthieno[3,2-b]pyridin-2-yl)-N-pyrazin-2-yl-D-alaninamide] | ≤ 500 | ≤ 500 |  | 
Cc1c(C[C@@H](N)C(=O)Nc2ccncc2)sc2c(NCc3ccco3)cc(Cl)nc12 [Cpd 140, 3-(5-chloro-7-{[(furan-2-yl)methyl]amino}-3-methylthieno[3,2-b]pyridin-2-yl)-N-pyridin-4-yl-D-alaninamide] | ≤ 500 | ≤ 500 |  | 
Cc1c(C[C@@H](N)C(=O)N(C)c2ccccc2)sc2c(NCc3ccco3)cc(Cl)nc12 [Cpd 141, 3-(5-chloro-7-{[(furan-2-yl)methyl]amino}-3-methylthieno[3,2-b]pyridin-2-yl)-N-methyl-N-phenyl-D-alaninamide] | 1000 to 1500 | 1000 to 1500 |  | 
Cc1c([C@H](C)[C@H](C)N)sc2c(NCc3ccco3)cc(Cl)nc12 [Cpd 150, 2-[(2R,3S)-3-aminobutan-2-yl]-5-chloro-N-[(furan-2-yl)methyl]-3-methylthieno[3,2-b]pyridin-7-amine] | ≤ 500 | ≤ 500 |  | 
Cc1c([C@@H](C)[C@H](C)N)sc2c(NCc3ccco3)cc(Cl)nc12 [Cpd 151, 2-[(2S,3S)-3-aminobutan-2-yl]-5-chloro-N-[(furan-2-yl)methyl]-3-methylthieno[3,2-b]pyridin-7-amine] | 1000 to 1500 | 1000 to 1500 |  | 
Cc1c(CCN)sc2c(NCc3ccco3)cc(Cl)nc12 [Cpd 152, 2-(2-aminoethyl)-5-chloro-N-[(furan-2-yl)methyl]-3-methylthieno[3,2-b]pyridin-7-amine] |  |  | inactive | inactive
C[C@H](N)C(O)c1sc2c(NCc3ccco3)cc(Cl)nc2c1Br (stereo partly drawn) [Cpd 153, (2S)-2-amino-1-(3-bromo-5-chloro-7-{[(furan-2-yl)methyl]amino}thieno[3,2-b]pyridin-2-yl)propan-1-ol] |  |  | inactive | inactive
C[C@H](N)C(F)c1sc2c(NCc3ccco3)cc(Cl)nc2c1Br (stereo partly drawn) [Cpd 154, 2-[(2S)-2-amino-1-fluoropropyl]-3-bromo-5-chloro-N-[(furan-2-yl)methyl]thieno[3,2-b]pyridin-7-amine] | ≤ 500 | ≤ 500 |  | 
C[C@H](N)C(O)c1sc2c(NCc3cccs3)cc(Cl)nc2c1Br (stereo partly drawn) [Cpd 155, (2S)-2-amino-1-(3-bromo-5-chloro-7-{[(thiophen-2-yl)methyl]amino}thieno[3,2-b]pyridin-2-yl)propan-1-ol] |  |  | inactive | inactive
